This is an account of results in patent US12569470B2, “Vasodilator and use thereof” (Bioradical Research Institute Corp., priority 2019, dated 2026).

The subject of data set [1] is rat neuroid cells B50. The experiment in a line: Toxicity evaluation, cell viability by Alamar Blue. Format: cell-based. The following applies: 12.5, 25, 50, 100, or 200 μmol/1, 24 hours, FIG. 5. The method, then:
Rat neuroid cells B50 were seeded in 12-well plates and then cultured. Edaravone (RC), ED2AP, or BisEp-C3 was added to each well so as to achieve a predetermined concentration (12.5, 25, 50, 100, or 200 μmol/1), and then incubated for 24 hours at 37° C. and 5% CO2. Cell viability in each well after the culture was measured using Alamar Blue.
On the technique in general: Alamar Blue is a resazurin reagent that responds to reducing activity.

In data set [2] the test system is rat neuroid cells B50. The experiment in a line: Toxicity evaluation on byproducts after reaction with singlet oxygen. Format: cell-based. The note with it: byproducts after reaction with singlet oxygen, 50, 100, or 200 μmol/1, FIG. 6. The method, then:
In a cell-free system, the RB was added to media (5% FCS-containing RPMI-1640 media) containing edaravone, ED2AP, and BisEp-C3 having a predetermined concentration (50, 100, or 200 μmol/1) and then irradiated with LED (G-LED) at 525 nm to generate singlet oxygen, whereby reacting each compound with singlet oxygen. The cell viability was measured in the same manner as in Example 7(1), except that the culture solution after the reaction was used as a medium of the neuroid cell B50. As a negative control (NC), the cell viability was measured in the same manner except that each compound and […] were not added in the cell-free system. Further, as a control (RB), the cell viability was measured in the same manner except that each compound was not added and only […] was added in the cell-free system.

The nature of data set [3]: Storage stability in pH7.4-PBS or pure water at 37° C., residual rate by HPLC. The data set is classed as physicochemical. The following applies: for Residual rate (%) After 1 week / Residual rate (%) After 2 weeks: 200 μmol/1, 37° C., protected from light; for Residual rate (%) Initial concentration: 200 μmol/1, initial concentration (100%) being a reference. The method, then:
The storage stability of edaravone, EMPO, ED2AP, and BisEp-C3 of the following formula (A) were examined. Specifically, edaravone, EMPO, ED2AP, and BisEp-C3 were dissolved in pH7.4-PBS or pure water so as to have a final concentration of 200 μmol/1 to prepare dissolved solutions of these compounds. When the compounds were difficult to be dissolved, they were dissolved in an ultrasonic cleaner with warm water at 40° C.
Under the measurement conditions for High-Performance Liquid Chromatography (HPLC) described below, the initial concentration was quantified, and then each solution was stored in an oven, which was protected from light, at 37° C., and quantified under the same measurement conditions after 1 week and 2 weeks, to determine residual rate (%) with the initial concentration (100%) being a reference.
Measurement Conditions for HPLC
High-Performance Liquid Chromatography (Shimadzu Corporation)
Data-processing software (Model: LCsolution Ver. 1.0, produced by Shimadzu Corporation)
Pump (Model: LC-20AD; produced by Shimadzu Corporation)
Column oven (Model: CTO-20A; produced by Shimadzu Corporation)
Autosampler (Model: SIL-20A; produced by Shimadzu Corporation)
PDA detector (Format: SPD-M20A)
Column: Atlantis dC18 5 μm (250×4.6 mm I.D.; produced by Waters)
Column temperature: 45° C.
Detection method: UV (254 nm)
Eluate A: pH3 buffer solution (adjusted to pH3 by adding phosphoric acid to 0.05M KH2PO4 aqueous solution)/methanol=90/10

Data set [4] deals with superoxide produced by the neutrophils. The experiment in a line: Superoxide-eliminating ability of PBS solutions before and after storage for 10 days. The data set is classed as cell-based, human. The note with it: PBS solution stored for 10 days versus immediately after preparation, 0-200 μmol/1, FIG. 4. The method, then: First, ED2AP, BisEp-C3, edaravone, BisEp-C1, or BisEp-C1 (H2) was added to a neutrophil of 4×10^5 cells per sample so as to achieve a predetermined concentration (0, 12.5, 25, 50, 100, or 200 μmol/1, or 0, 125, 250, 500, 1,250, 2,500 or 5,000 μmol/1) with […] of CLA, and then the cell suspension was seeded in flat-bottomed 96-well plates. The volume of the suspension was 200 μl/well, and phenol red-free Ca+, Mg+ HBSS was used as the solution. In addition, the neutrophil was stimulated by adding PMA so as to achieve a concentration of 100 ng/ml. After the stimulation, a plate reader (Envision 2104 Multilabel Reader produced by Perkin Elmer Co., Ltd.) was used to measure the chemiluminescence value over time for 30 minutes with the PMA stimulation time being a reference. The measurement interval was 30 seconds. […] In addition, as a control, the superoxide production amount was measured in the same manner except that each compound was not added. The relative value of the superoxide production amount when each compound was added was calculated with the superoxide production amount of the control being 100.
PBS solutions of ED2AP, BisEp-C3, and edaravone were prepared in the same manner as in Example 2 and stored for 10 days. […] Then, the relative value of the superoxide production amount of each sample was calculated with the superoxide production amount of the sample of 0 μmol/1 being 100.

On to `CCN1N=C(C)/C(=C\C=C\c2c(C)nn(CC)c2O)C1=O` [BisEp-C3, 2,4-dihydro-4-[3-(1-ethyl-5-hydroxy-3-methyl-1H-pyrazol-4-yl)-2-propen-1-ylidene]-2-ethyl-5-methyl-3H-pyrazol-3-one], for which the “cell viability (cytotoxicity)” value in the data set on rat neuroid cells B50 [1] was “not cytotoxic at any concentration”. Further, in the data set with rat neuroid cells B50 [2], the “cell viability (cytotoxicity of byproducts)” value is “not cytotoxic at any concentration”. Also, in data set [3] (Pure water), the “Residual rate (%) After 1 week” value is 99.4%, the “Residual rate (%) After 2 weeks” value is given as 88.5% and the “Residual rate (%) Initial concentration” value is reported as 100%. In addition, in data set [3] (pH 7.4-PBS), the “Residual rate (%) After 1 week” value turned out to be 98.7%, the “Residual rate (%) After 2 weeks” value turned out to be 93.6% and the “Residual rate (%) Initial concentration” value is reported as 100%. Besides, the “superoxide-eliminating ability after storage” value in data set [4] is on record as “maintained the superoxide-eliminating ability equivalent to that immediately after preparation”.

For `CC1=NN(c2ccccc2)C(=O)/C1=C/C=C/c1c(C)nn(-c2ccccc2)c1O` [ED2AP, 2,4-dihydro-4-[3-(5-hydroxy-3-methyl-1-phenyl-1H-pyrazol-4-yl)-2-propen-1-ylidene]-5-methyl-2-phenyl-3H-pyrazol-3-one], the “cell viability (cytotoxicity)” value in the data set on rat neuroid cells B50 [1] is listed as “not cytotoxic at any concentration”. The “cell viability (cytotoxicity of byproducts)” value in the data set on rat neuroid cells B50 [2] is listed as “not cytotoxic at any concentration”. Also, in data set [3] (Pure water), the “Residual rate (%) After 1 week” value amounted to 96.1%, the “Residual rate (%) After 2 weeks” value turned out to be 89.8% and the “Residual rate (%) Initial concentration” value is 100%. Also, in data set [3] (pH 7.4-PBS), the “Residual rate (%) After 1 week” value was determined as 96.2%, the “Residual rate (%) After 2 weeks” value is 91.3% and the “Residual rate (%) Initial concentration” value is on record as 100%. For the same compound, the “superoxide-eliminating ability after storage” value in data set [4] was “maintained the superoxide-eliminating ability equivalent to that immediately after preparation”.
